Literature values as cited in patent EP1691200A1, “The use of BNP-type peptides and ANP-type peptides for assessing the risk of suffering from a cardiovascular complication as a consequence of volume overload” (F. HOFFMANN-LA ROCHE AG, priority 2005, dated 2006).

CS(=O)(=O)c1ccc(C2=C(c3ccccc3)C(=O)OC2)cc1 [rofecoxib]
additional cardiovascular incidents (myocardial infarction, stroke) (25 mg rofecoxib compared with a placebo, after 18 months of follow-up): 16 per 1,000 treated patients
blood pressure levels (25 mg rofecoxib compared with a placebo, early post-observation phase): higher blood pressure levels
rise in the rate of serious thromboembolic incidents (APPROVE study, patients without any recognisable cardiovascular risk, led to premature discontinuation): 3.9 times
